The record followed here is patent US20230203043A1, “NOVEL IMIDAZOPYRAZINE DERIVATIVES” (Hoffmann-La Roche Inc., priority 2020, published 2023).

SMILES strings stand for the structures. Counter-ions that a name gives are not always drawn. Like-named read-outs stand apart in the source and are kept apart here.

The assay relates to Acinetobacter baumannii ATCC17961. The assay is described as follows: Antimicrobial susceptibility testing: 90% growth inhibitory concentration (IC90) determination in Iso-Sensitest broth, OD600 growth. Type of assay: cell-based. The gist of the method: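 Growth inhibition is calculated during the logarithmic phase from OD600 readings taken every 20 minutes across 16 h at 35±2° C. Bacteria at ~5×10^(5) CFU/ml face twofold dilution series (e.g. 50 to 0.097 μM final).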

Where [1] appears, read: Acinetobacter baumannii, ATCC17961, 16 h, strain ATCC 17961, OD600 growth over 16 h, read-out: A. baumannii ATCC 17961 IC90.
Where [2] appears, read: Acinetobacter baumannii, ATCC17961, 16 h, read-out: A. baumannii ATCC 17961 IC90 (uM), strain ATCC 17961, OD600 growth over 16 h.
[3] abbreviates: strain ATCC 17961, OD600 growth over 16 h, read-out: A. baumannii ATCC 17961 IC90.

Turning to `Cc1cc(Nc2nccn3c(-c4c[nH]nc4C(F)(F)F)cnc23)ccc1C(=O)NCCOCCN` [Example 360, N-[2-(2-aminoethoxy)ethyl]-2-methyl-4-[[3-[3-(trifluoromethyl)-1H-pyrazol-4-yl]imidazo[1,2-a]pyrazin-8-yl]amino]benzamide hydrochloride], the IC90 under setting [1] is 0.257 µM. As for `CCNC(=O)c1ccc(Nc2nccn3c(-c4cn(CC#N)nc4C(F)(F)F)cnc23)cc1CC` [Example 113, 4-[[3-[1-(cyanomethyl)-3-(trifluoromethyl)pyrazol-4-yl]imidazo[1,2-a]pyrazin-8-yl]amino]-N,2-diethylbenzamide], the IC90 under setting [1] was found to be 0.234 µM. The same measure, in the same setting: to `N#CCn1cc(-c2cnc3c(Nc4ccc(C(=O)NCCOCCN)c(F)c4)nccn23)c(C(F)(F)F)n1` [Example 810, N-(2-(2-aminoethoxy)ethyl)-4-((3-(1-(cyanomethyl)-3-(trifluoromethyl)-1H-pyrazol-4-yl)imrdazo[1,2-a]pyrazin-8-yl)amino)-2-fluorobenzamide hydrochloride] belongs 0.25 µM. Regarding `CCc1cc(Nc2nccn3c(-c4cn(CC#N)nc4C(F)(F)F)cnc23)ccc1C(=O)NCCOCCCN` [Example 612, N-(2-(3-aminopropoxy)ethyl)-4-((3-(1-(cyanomethyl)-3-(trifluoromethyl)-1H-pyrazol-4-yl)imidazo[1,2-a]pyrazin-8-yl)amino)-2-ethylbenzamide formate], under setting [2], the IC90 is 0.1 µM. Consider `CCc1cc(Nc2nccn3c(-c4cn(CC#N)nc4C(F)(F)F)cnc23)ccc1C(=O)NCCCNC(=O)N1CC[C@@H](N)C1` [Example 685, (R)-3-amino-N-(3-(4-((3-(1-(cyanomethyl)-3-(trifluoromethyl)-1H-pyrazol-4-yl)imidazo[1,2-a]pyrazin-8-yl)amino)-2-ethylbenzamido)propyl) pyrrolidine-1-carboxamide formate], for which the 90% effect concentration (IC90) under setting [1] was 0.34 µM. In the case of `CCc1cc(Nc2nccn3c(-c4cn(Cc5cccnc5)nc4C(F)(F)F)cnc23)ccc1C(=O)NCCCNCCCCNCCCN` [Example 7, N-[3-[4-(3-aminopropylamino)butylamino]propyl]-2-ethyl-4-[[3-[1-(pyridin-3-ylmethyl)-3-(trifluoromethyl)pyrazol-4-yl]imidazo[1,2-a]pyrazin-8-yl]amino]benzamide hydrochloride], the IC90 under setting [2] was found to be 0.782 µM. Consider `CCc1cc(Nc2nccn3c(-c4c[nH]nc4C(F)(F)F)cnc23)ccc1C(=O)NCC1CCN(CC2CNC2)C1` (stereo not drawn) [Example 827, N-((1-(azetidin-3-ylmethyl)pyrrolidin-3-yl)methyl)-2-ethyl-4-((3-(3-(trifluoromethyl)-1H-pyrazol-4-yl)imidazo[1,2-α]pyrazin-8-yl)amino)benzamide bis(2,2,2-trifluoroacetate)], for which, under setting [1], the IC90 amounted to 0.57 µM.

For `NCC(=O)N1CC2(C1)CN(C(=O)c1ccc(Nc3nccn4c(-c5cn(CC(F)F)nc5C(F)(F)F)cnc34)cc1Cl)C2` [Example 651, 2-amino-1-(6-(2-chloro-4-((3-(1-(2,2-difluoroethyl)-3-(trifluoromethyl)-1H-pyrazol-4-yl)imidazo[1,2-a]pyrazin-8-yl)amino)benzoyl)-2,6-diazaspiro[3.3]heptan-2-yl)ethan-1-one], under setting [1], the concentration for an effect of 90% (IC90) stood at 0.254 µM.

Regarding `Cc1cc(Nc2nccn3c(-c4cn(CC(F)F)nc4C(F)(F)F)cnc23)cc(F)c1C(=O)N1CCN(C(=O)[C@H]2[C@@H]3CNC[C@@H]32)CC1` [Example 692, (4-((1R,5S,6r)-3-azabicyclo[3.1.0]hexane-6-carbonyl)piperazin-1-yl)(4-((3-(1-(2,2-difluoroethyl)-3-(trifluoromethyl)-1H-pyrazol-4-yl)imidazo[1,2-a]pyrazin-8-yl)amino)-2-fluoro-6-methylphenyl)methanone], the IC90 under setting [1] was determined as 0.356 µM. Take `CCc1cc(Nc2nccn3c(-c4cn(CC#N)nc4C(F)(F)F)cnc23)ccc1C(=O)NCC(=O)N1CCNC(C)C1` (stereo not drawn) [Example 507, 4-[[3-[1-(cyanomethyl)-3-(trifluoromethyl)pyrazol-4-yl]imidazo[1,2-a]pyrazin-8-yl]amino]-2-ethyl-N-[2-(3-methylpiperazin-1-yl)-2-oxo-ethyl]benzamide formate]: the IC90 under setting [2] was 0.245 µM.

With `NC1CN(C(=O)CNC(=O)c2ccc(Nc3nccn4c(-c5c[nH]nc5C(F)(F)F)cnc34)cc2Cl)C1` [Example 141, N-[2-(3-aminoazetidin-1-yl)-2-oxoethyl]-2-chloro-4-[[3-[3-(trifluoromethyl)-1H-pyrazol-4-yl]imidazo[1,2-a]pyrazin-8-yl]amino]benzamide], the concentration for an effect of 90% (IC90) under setting [1] worked out at 4.05 µM. With `C#CCNCCCNC(=O)c1c(C)cc(Nc2nccn3c(-c4cn(CC(F)F)nc4C(F)(F)F)cnc23)cc1F` [Example 68, 4-[[3-[1-(2,2-difluoroethyl)-3-(trifluoromethyl)pyrazol-4-yl]imidazo[1,2-a]pyrazin-8-yl]amino]-2-fluoro-6-methyl-N-[3-(prop-2-ynylamino)propyl] benzamide], the IC90 under setting [3] came to 0.43 µM.

Consider `NC(=O)c1ccc(Nc2nccn3c(-c4c[nH]nc4C(F)(F)F)cnc23)cc1Cl` [Example 404, 2-chloro-4-[[3-[3-(trifluoromethyl)-1H-pyrazol-4-yl]imidazo[1,2-a]pyrazin-8-yl]amino]benzamide], for which the IC90 under setting [1] worked out at 1.23 µM.

Turning to `Cc1cnc(Cn2cc(-c3cnc4c(Nc5ccc(C(=O)N6CCNCC6)c(Cl)c5)nccn34)c(C(F)(F)F)n2)nc1` [Example 160, [2-chloro-4-[[3-[1-[(5-methylpyrimidin-2-yl)methyl]-3-(trifluoromethyl)pyrazol-4-yl]imidazo[1,2-a]pyrazin-8-yl]amino]phenyl]-piperazin-1-ylmethanone formate], under setting [2], the 90% effect concentration (IC90) is 0.63 µM. For the compound `CCc1cc(Nc2nccn3c(-c4cn(CCN(C)C)nc4C(F)(F)F)cnc23)ccc1C(=O)NCCOCCN` [Example 309, N-[2-(2-aminoethoxy)ethyl]-4-[[3-[1-[2-(dimethylamino)ethyl]-3-(trifluoromethyl)pyrazol-4-yl]imidazo[1,2-a]pyrazin-8-yl]amino]-2-ethylbenzamide formate], the IC90 under setting [2] is 0.618 µM.

Take `Cc1cc(Nc2nccn3c(-c4c[nH]nc4C(F)(F)F)cnc23)ccc1C(=O)N1CCN(C(=O)[C@@H]2CCNC[C@@H]2O)CC1` [Example 461, formic acid; [4-[(3R,4R)-3-hydroxypiperidine-4-carbonyl]piperazin-1-yl]-[2-methyl-4-[[3-[3-(trifluoromethyl)-1H-pyrazol-4-yl]imidazo[1,2-a]pyrazin-8-yl]amino]phenyl]methanone]: the IC90 under setting [2] is 0.926 µM. On to `CCc1cc(Nc2nccn3c(-c4cn(CC(F)F)nc4C(F)(F)F)cnc23)ccc1C(=O)N[C@@H](C)CN` [Example 57, N-[(2S)-1-aminopropan-2-yl]-4-[[3-[1-(2,2-difluoroethyl)-3-(trifluoromethyl)pyrazol-4-yl]imidazo[1,2-a]pyrazin-8-yl]amino]-2-ethylbenzamide], for which the IC90 under setting [1] was 0.202 µM. Regarding `N#CCn1cc(-c2cnc3c(Nc4ccc(C(=O)NCCO)c(Cl)c4)nccn23)c(C(F)(F)F)n1` [Example 234, 2-chloro-4-[[3-[1-(cyanomethyl)-3-(trifluoromethyl)pyrazol-4-yl]imidazo[1,2-a]pyrazin-8-yl]amino]-N-(2-hydroxyethyl) benzamide], under setting [3], the IC90 turned out to be 0.189 µM. For `CCc1cc(Nc2nccn3c(-c4c[nH]nc4C(F)(F)F)cnc23)ccc1C(=O)N[C@H](C)CNC(=O)[C@@H]1CCCN1` [Example 762, (S)-N-((R)-2-(2-ethyl-4-((3-(3-(trifluoromethyl)-1H-pyrazol-4-yl)imidazo[1,2-a]pyrazin-8-yl)amino)benzamido)propyl) pyrrolidine-2-carboxamide], the IC90 under setting [1] turned out to be 0.722 µM. Turning to `NC1CCN(C(=O)CNC(=O)c2ccc(Nc3nccn4c(-c5c[nH]nc5C(F)(F)F)cnc34)cc2Cl)CC1` [Example 136, N-[2-(4-aminopiperidin-1-yl)-2-oxoethyl]-2-chloro-4-[[3-[3-(trifluoromethyl)-1H-pyrazol-4-yl]imidazo[1,2-a]pyrazin-8-yl]amino]benzamide], under setting [1], the IC90 stood at 1.33 µM. As to `N#CCn1cc(-c2cnc3c(Nc4ccc(C(=O)NCCNCC(=O)N[C@@H]5CCNC5)c(Cl)c4)nccn23)c(C(F)(F)F)n1` [Example 818, (R)-2-chloro-4-((3-(1-(cyanomethyl)-3-(trifluoromethyl)-1H-pyrazol-4-yl)imidazo[1,2-a]pyrazin-8-yl)amino)-N-(2-((2-oxo-2-(pyrrolidin-3-ylamino)ethyl)amino)ethyl) benzamide formate], the IC90 under setting [1] came out at 0.15 µM. Take `CCc1cc(Nc2nccn3c(-c4cn(CC#N)nc4C(F)(F)F)cnc23)ccc1C(=O)NCC(=O)NC1CC(N)C1` (stereo not drawn) [Example 675, N-[2-[(3-aminocyclobutyl)amino]-2-oxo-ethyl]-4-[[3-[1-(cyanomethyl)-3-(trifluoromethyl)pyrazol-4-yl]imidazo[1,2-a]pyrazin-8-yl]amino]-2-ethyl-benzamide formate]: the IC90 under setting [2] worked out at 0.315 µM.

For the compound `CCc1cc(Nc2nccn3c(-c4cn(CC(F)F)nc4C(F)(F)F)cnc23)ccc1C(=O)NCCNC(=O)[C@H]1CC[C@H](N)C1` [Example 492, N-(2-((1S,3S)-3-aminocyclopentane-1-carboxamido)ethyl)-4-((3-(1-(2,2-difluoroethyl)-3-(trifluoromethyl)-1H-pyrazol-4-yl)imidazo[1,2-a]pyrazin-8-yl)amino)-2-ethylbenzamide formate], the IC90 under setting [1] is 0.2 µM.

In the case of `CCc1cc(Nc2nccn3c(-c4c[nH]nc4C(F)(F)F)cnc23)ccc1C(=O)NCCNC(=O)[C@H]1CC[C@@H](N)C1` [Example 724, N-(2-((1S,3R)-3-aminocyclopentane-1-carboxamido)ethyl)-2-ethyl-4-((3-(3-(trifluoromethyl)-1H-pyrazol-4-yl)imidazo[1,2-a]pyrazin-8-yl)amino)benzamide], the IC90 under setting [1] was 0.459 µM.

In general, IC90 refers to the concentration needed for an effect of 90%.
